Measurements from patent publication US6914045B2, “Glycopeptide antibiotics” (Wyeth Holdings Corporation, priority 2001, dated 2005).
≈ marks a conversion by molar mass, not a printed value.

Experiments:
[1] = anatomic pathology (histopathology of heart and kidney) in mice; type: in vivo; details: CD-1 mice, 20 mg/kg intravenously daily for 9 days, necropsy day 10, microscopic histopathology
Procedure: Samples of tissues from necropsied mice were formalin-fixed, paraffin-embedded, sectioned, stained with hematoxylin and eosin, and examined microscopically. Histopathologic findings were recorded. These findings were subjectively graded on a scale corresponding to slight, mild, moderate, marked and severe as compared to untreated controls.

Enterococcus sp. = assay: in vitro antibacterial evaluation, MIC by broth dilution; type: cell-based; details: broth dilution, 18 hours at 35° C.
Outline: (§1)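 Following National Committee for Clinical Laboratory Standards recommendations (M7-A2), susceptibility was measured by dilution in Muller-Hinton II […]. Bacteria were seeded at 5×10^5 CFU/mL against compound concentrations from 64 down to 0.06 μg/mL.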

Streptococcus sp. = assay: as above; type: cell-based; details: broth dilution, 18 hours at 35° C.
Outline: as §1

Staphylococcus sp. = assay: as above; type: cell-based; details: broth dilution, 18 hours at 35° C.
Outline: as §1

[2] = tested on: Staphylococcus aureus-SMITH (GC 4543); assay: acute lethal infection in mice; type: in vivo; details: acute lethal infection, female CD-1 mice, intraperitoneal challenge, intravenous 30 min. after infection, 7 day survival
Outline: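 Mice (female CD-1, 20+/−2 gm) receive bacteria ip in broth or hog gastric mucin, then test agent iv after 30 min. Median effective dose is calculated from 7 day survival pooled across 3 tests.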

Escherichia coli = assay: in vitro antibacterial evaluation, MIC by broth dilution; type: cell-based; details: 18 hours at 35° C.

COc1ccc2cc(COC3C(CO)OC(OC4C(CO)OC(Oc5ccc(CC6NC(=O)C(C(C)c7ccccc7)NC(=O)CNC(=O)C(CO)NC(=O)C(C(O)C7CNC(=N)N7C7OC(CO)C(O)C(O)C7O)NC(=O)C(C(O)C7CNC(=N)N7)NC6=O)cc5)C(O)C4O)C(O)C3O)ccc2c1 (stereo not drawn) [Example 230a, Cyclo[glycyl-β-methylphenylalanyl-O-[4-O-[4-O-[(6-methoxy-2-naphthyl)methyl]hexopyranosyl]hexopyranosyl]tyrosyl-3-(2-iminoimidazolidin-4-yl)seryl-3-(3-hexopyranosyl-2-iminoimidazolidin-4-yl)serylseryl]]
Anatomical Pathology (Day 10), Heart [1]: 0 | Anatomical Pathology (Day 10), Kidney [1]: + | MIC Enterococcus avium (GC 4558) (Enterococcus sp.): 2 to 4 mg/L | MIC Enterococcus faecalis (ATCC 29212) (Enterococcus sp.): 2 to 4 mg/L | MIC Enterococcus faecalis (GC 2242) (Enterococcus sp.): 2 to 4 mg/L | MIC Enterococcus faecalis (GC 2691) (Enterococcus sp.): 2 to 4 mg/L | MIC Enterococcus faecalis (GC 3059) (Enterococcus sp.): 2 to 4 mg/L | MIC Enterococcus faecalis (GC 4552) (Enterococcus sp.): 2 to 4 mg/L | MIC Enterococcus faecalis (GC 4553) (Enterococcus sp.): 2 to 4 mg/L | MIC Enterococcus faecalis (GC 4554) (Enterococcus sp.): 2 to 4 mg/L | MIC Enterococcus faecalis (GC 6189) (Enterococcus sp.): 1 to 4 mg/L | MIC Enterococcus faecium (GC 2243) (Enterococcus sp.): 2 to 4 mg/L | MIC Enterococcus faecium (GC 4556) (Enterococcus sp.): 2 to 4 mg/L | MIC Enterococcus faecium (GC 4557) (Enterococcus sp.): 1 to 2 mg/L | MIC Enterococcus faecalis (ATCC 29212) (Enterococcus sp.; inoculum 5×10^5 CFU/mL, strain ATCC 29212): 2 to 4 mg/L | MIC Enterococcus faecalis (GC 2242) (Enterococcus sp.; inoculum 5×10^5 CFU/mL, strain GC 2242): 2 to 4 mg/L | MIC Enterococcus faecium (GC 2243) (Enterococcus sp.; inoculum 5×10^5 CFU/mL, strain GC 2243): 2 to 4 mg/L | MIC Enterococcus faecalis (GC 2691) (Enterococcus sp.; inoculum 5×10^5 CFU/mL, strain GC 2691): 2 to 4 mg/L | MIC Enterococcus faecalis (GC 3059) (Enterococcus sp.; inoculum 5×10^5 CFU/mL, strain GC 3059): 2 to 4 mg/L | MIC Enterococcus faecalis (GC 4552) (Enterococcus sp.; inoculum 5×10^5 CFU/mL, strain GC 4552): 2 to 4 mg/L | MIC Enterococcus faecalis (GC 4553) (Enterococcus sp.; inoculum 5×10^5 CFU/mL, strain GC 4553): 2 to 4 mg/L | MIC Enterococcus faecalis (GC 4554) (Enterococcus sp.; inoculum 5×10^5 CFU/mL, strain GC 4554): 2 to 4 mg/L | MIC Enterococcus faecium (GC 4556) (Enterococcus sp.; inoculum 5×10^5 CFU/mL, strain GC 4556): 2 to 4 mg/L | MIC Enterococcus faecium (GC 4557) (Enterococcus sp.; inoculum 5×10^5 CFU/mL, strain GC 4557): 1 to 2 mg/L | MIC Enterococcus avium (GC 4558) (Enterococcus sp.; inoculum 5×10^5 CFU/mL, strain GC 4558): 2 to 4 mg/L | MIC Enterococcus faecalis (GC 6189) (Enterococcus sp.; inoculum 5×10^5 CFU/mL, strain GC 6189): 1 to 4 mg/L | MIC Streptococcus agalactiae (GC 4564) (Streptococcus sp.): <0.06 to 0.12 mg/L | MIC Streptococcus pneumoniae (ATCC 6301) (Streptococcus sp.): <0.06 mg/L | MIC Streptococcus pneumoniae (GC 1894) (Streptococcus sp.): <0.06 mg/L | MIC Streptococcus pneumoniae (GC 4565) (Streptococcus sp.): <0.06 mg/L | MIC Streptococcus pyogenes (GC 4563) (Streptococcus sp.): <0.06 to 0.25 mg/L | MIC Streptococcus pneumoniae (ATCC 6301) (Streptococcus sp.; inoculum 5×10^5 CFU/mL, strain ATCC 6301): <0.06 mg/L | MIC Streptococcus pneumoniae (GC 1894) (Streptococcus sp.; inoculum 5×10^5 CFU/mL, strain GC 1894): <0.06 mg/L | MIC Streptococcus pyogenes (GC 4563) (Streptococcus sp.; inoculum 5×10^5 CFU/mL, strain GC 4563): <0.06 to 0.25 mg/L | MIC Streptococcus agalactiae (GC 4564) (Streptococcus sp.; inoculum 5×10^5 CFU/mL, strain GC 4564): <0.06 to 0.12 mg/L | MIC Streptococcus pneumoniae (GC 4565) (Streptococcus sp.; inoculum 5×10^5 CFU/mL, strain GC 4565): <0.06 mg/L | MIC Coagulase Negative Staphylococcus (GC 4547) (Staphylococcus sp.): 0.5 to 2 mg/L | MIC Coagulase Negative Staphylococcus (GC 4548) (Staphylococcus sp.): 0.12 to 0.5 mg/L | MIC Coagulase Negative Staphylococcus (GC 4549) (Staphylococcus sp.): 0.12 to 0.5 mg/L | MIC Coagulase Negative Staphylococcus (GC 4551) (Staphylococcus sp.): 0.25 to 1 mg/L | MIC Coagulase Negative Staphylococcus (GC 6257) (Staphylococcus sp.): 0.25 to 0.5 mg/L | MIC Staphylococcus aureus (ATCC 29213) (Staphylococcus sp.): 1 to 2 mg/L | MIC Staphylococcus aureus (GC 1131) (Staphylococcus sp.): 0.5 to 2 mg/L | MIC Staphylococcus aureus (GC 3051) (Staphylococcus sp.): 1 to 2 mg/L | MIC Staphylococcus aureus (GC 3053) (Staphylococcus sp.): 1 to 2 mg/L | MIC Staphylococcus aureus (GC 4541) (Staphylococcus sp.): 0.5 to 2 mg/L | MIC Staphylococcus aureus (GC 4542) (Staphylococcus sp.): 0.25 to 2 mg/L | MIC Staphylococcus aureus (GC 4544) (Staphylococcus sp.): 1 to 2 mg/L | MIC Staphylococcus aureus (GC 4545) (Staphylococcus sp.): 0.5 to 1 mg/L | MIC Staphylococcus aureus-SMITH (GC 4543) (Staphylococcus sp.): 0.5 to 2 mg/L | MIC Staphylococcus haemolyticus (GC 4546) (Staphylococcus sp.): 0.25 to 1 mg/L | MIC Staphylococcus aureus (ATCC 29213) (Staphylococcus sp.; strain ATCC 29213): 1 to 2 mg/L | MIC Staphylococcus aureus (GC 1131) (Staphylococcus sp.; strain GC 1131): 0.5 to 2 mg/L | MIC Staphylococcus aureus (GC 3051) (Staphylococcus sp.; strain GC 3051): 1 to 2 mg/L | MIC Staphylococcus aureus (GC 3053) (Staphylococcus sp.; strain GC 3053): 1 to 2 mg/L | MIC Staphylococcus aureus (GC 4541) (Staphylococcus sp.; strain GC 4541): 0.5 to 2 mg/L | MIC Staphylococcus aureus (GC 4542) (Staphylococcus sp.; strain GC 4542): 0.25 to 2 mg/L | MIC Staphylococcus aureus-SMITH (GC 4543) (Staphylococcus sp.; strain GC 4543): 0.5 to 2 mg/L | MIC Staphylococcus aureus (GC 4544) (Staphylococcus sp.; strain GC 4544): 1 to 2 mg/L | MIC Staphylococcus aureus (GC 4545) (Staphylococcus sp.; strain GC 4545): 0.5 to 1 mg/L | MIC Staphylococcus haemolyticus (GC 4546) (Staphylococcus sp.; strain GC 4546): 0.25 to 1 mg/L | MIC Coagulase Negative Staphylococcus (GC 4547) (Staphylococcus sp.; strain GC 4547): 0.5 to 2 mg/L | MIC Coagulase Negative Staphylococcus (GC 4548) (Staphylococcus sp.; strain GC 4548): 0.12 to 0.5 mg/L | MIC Coagulase Negative Staphylococcus (GC 4549) (Staphylococcus sp.; strain GC 4549): 0.12 to 0.5 mg/L | MIC Coagulase Negative Staphylococcus (GC 4551) (Staphylococcus sp.; strain GC 4551): 0.25 to 1 mg/L | MIC Coagulase Negative Staphylococcus (GC 6257) (Staphylococcus sp.; strain GC 6257): 0.25 to 0.5 mg/L | median effective dose (ED50), Staphylococcus aureus-SMITH (GC 4543) [2]: 0.06 mg/kg | MIC Escherichia coli (ATCC 25922) (Escherichia coli): 32 mg/L (≈ 21.8 µM) | MIC Escherichia coli (GC 4559) (Escherichia coli): 32 mg/L (≈ 21.8 µM) | MIC Escherichia coli (GC 4560) (Escherichia coli): 0.25 to 1 mg/L
